# Assays:
# tubulin = experiment: Binding of S versus R enantiomers to tubulin; conditions: S enantiomer versus corresponding R enantiomer
# [1] = system: tubulin in colon cancer cell line HCT-116; experiment: Whole cell binding assay, tritiated S-enantiomer of compound 2 as probe, colon cancer cell line HCT-116; conditions: for Binding of radioligand (% control): HCT-116, 1 hour preincubation, 1 hour with radioligand; for Effect on binding of the radioligand (in words): HCT-116, tritiated S-enantiomer of compound 2
# Experimental: Effect of antitubulin compounds on binding of the tritiated S-enantiomer of compound 2 to tubulin in a whole cell binding assay using the colon cancer cell line HCT-116 is shown by this example.
# The colon cancer cell line HCT-116 (obtained from the American Type Culture Collection) was cultured in 75 cm^2 flasks containing McCoy's 5a Modified Medium with 10% heat-inactivated fetal bovine serum, 50 U/ml of penicillin G and 50 U/ml of streptomycin sulfate. A cell suspension was prepared by trypsinization of the culture, and adjusted to a density of 10^6 cells/ml by dilution into incomplete medium (medium lacking serum, penicillin G and streptomycin). Aliquots (150 μl) of cell suspension were added to wells of 96-well glass fiber filter plates (Millipore Multiscreen® plates, 1 μm glass fiber, Type B). Wells then received 30 μl of a solution of the test antitubulin compound in incomplete medium/DMSO mixture (8.5:1, v/v) or 30 μl of the incomplete medium/DMSO mixture alone (control). After mixing, the plates were incubated at 37° C. for 1 hour, then 25 μl of 0.8 μM tritium-labeled S-enantiomer of compound 2 was added to each well. After mixing, the plates were incubated at 37° C. for 1 hour, then binding of the radioligand to tubulin was stopped by adding 50 μl of 100 μM unlabeled compound 2. The fluid was removed from the plate by vacuum filtration through the glass fiber, then 100 μl of ice-cold 10% trichloroacetic acid was added to each well. The plates were incubated for 1 h at 4° C., then the fluid was removed by filtration. Ice-cold ethanol (250 μl) was added to each well, the plates incubated for 1 h at 4° C., then the ethanol was removed by filtration. Wells were washed 4 more times with 250 μl of ice-cold ethanol. After drying the plates at 37° C. for 20 min, the glass fiber filters were punched out of the wells into scintillation vials, 5 ml of scintillation fluid was added to each vial, and the samples were counted in a scintillation counter to determine the amount of bound radioactivity. The effects of different antitubulin compounds on binding of the radioligand are presented in Table 11 with the amounts of radioligand bound in the presence of each antitubulin compound expressed as a percentage of the amount of radioligand bound in the control.
# isolated bovine tubulin = experiment: Binding assay, tritiated compound 1 as probe, isolated bovine tubulin; conditions: 100 μM final concentration; 10 μM tubulin; 30 minutes preincubation, 120 minutes with tritiated compound 1 at 37° C.
# Experimental: Assay mixtures contained 10 μM isolated tubulin in 1.0 M sodium glutamate, pH 6.6 containing 1 mM MgCl2, and 2.5 μDMSO (control) or 2.5 μl of test compound dissolved in DMSO in 0.5 ml polypropylene tubes. Mixtures were incubated at 37° C. for 30 minutes, then 2.5 μl of a 640 μM solution of tritium-labeled compound 1 in DMSO was added. After further incubation at 37° C. for 120 minutes, aliquots (80 μl) of the assay mixtures were applied to 2.3 cm diameter Whatman 3MM filter paper disks, which were dried for 15 seconds under warm air, immersed in 3 ml of ice-cold 10% trichloroacetic acid, and left overnight at 4° C. Disks were transferred to 5% trichloroacetic acid for 30 minutes, washed twice more in 5% trichloroacetic acid, washed for 30 minutes at 37° C. in ethanol/ether (1:1, v/v), then for 15 min at room temperature in ethanol/ether (1:1, v/v), and finally in two successive washes for 15 minutes each in ether at room temperature. The disks were dried, transferred to scintillation vials containing 10 ml of Hydrofluor™ and counted in a scintillation counter.
# [2] = system: tubulin in tobacco suspension-cultured cells; experiment: Whole cell binding assay, tritiated compound 1 as probe, tobacco suspension-cultured cells
# Experimental: The effects of various antitubulin compounds from different chemical classes on binding of compound 1 to tubulin in tobacco suspension-cultured cells is shown in this example.
# Aliquots (2 ml) of suspension-cultured tobacco cells grown as described in Example 2 were added to 25 ml capacity glass vials. Each vial then received 5 μl of DMSO (control) or 5 μl of an antitubulin compound dissolved in DMSO. Vials were incubated with shaking at 27° C. for 2 hours, then 5 μl of a 100 μM solution of tritium-labeled compound 1 in DMSO was added. Vials were incubated with shaking at 27° C. for 20 minutes, then binding of the radioligand was stopped by adding 5 μl of unlabeled 40 mM compound 1. The samples were incubated with shaking at 27° C. for a further 20 minutes, then transferred to 15 ml capacity polypropylene centrifuge tubes in an ice bath. Each vial was rinsed with 2 ml ice-cold growth medium (described in example 2) and the rinse solution was then added to the rest of the sample. Following centrifugation at 4° C. for 3 minutes at 2,500 rpm the supernatant was discarded and the pelleted cells were resuspended in 4 ml of ice-cold 10% trichloroacetic acid. Samples were kept for 1 hour in an ice bath, centrifuged again, and the cells resuspended in 4 ml of ice-cold ethanol. After incubation for a further 1 hour in an ice-bath the cells were collected by filtration on glass fiber filters and washed twice with 10 ml of ice-cold ethanol. The filters with washed cells were transferred to scintillation vials, 10 ml of Hydrofluor™ scintillation fluid (National Diagnostics, Manville, N.J.) was added to each, and the samples were counted in a scintillation counter to determine the amount of bound radioactivity. The effects of different antitubulin compounds on binding of the radioligand are presented in Table 7 with the amounts of radioligand bound in the presence of each antitubulin compound expressed as a percentage of the amount of radioligand bound in the DMSO control.
# [3] = system: tubulin in Phytophthora capsici mycelium; experiment: Whole cell binding assay, tritiated compound 1 as probe, Phytophthora capsici mycelium; conditions: 1 hour preincubation, 20 min with tritiated compound 1
# Experimental: The effect of paclitaxel on binding of compound 1 to tubulin in Phytophthora capsici is shown in this example.
# A liquid mycelial shake culture of P. capsici in asparagine-sucrose medium was used to prepare a homogeneous suspension of fungal material for binding assays. Asparagine-sucrose medium (100 ml) was inoculated with mycelial plugs cut from cultures grown on V-8 agar, and incubated at 26° C. on a gyrotary shaker for 48 hours. The culture was homogenized in a blender, and 30 ml of the homogenate subcultured into 100 ml of fresh medium, which was then incubated at 26° C. on a gyrotary shaker for 17 hours. The resulting mycelium was recovered from the medium by centrifugation and resuspended in 1170 ml of fresh medium. Aliquots (2 ml) of this suspension were added to 25 ml capacity glass vials. Each vial then received 5 μl of DMSO (control) or 5 μl of paclitaxel dissolved in DMSO. Vials were incubated with shaking at 26° C. for 1 hour, then 5 μl of a 100 μM solution of tritium-labeled compound 1 in DMSO was added. Vials were incubated with shaking at 26° C. for 20 min, then binding of the radioligand was stopped by adding 5 μl of unlabeled 40 mM compound 1. The samples were incubated with shaking at 27° C. for a further 20 minutes, then transferred to 15 ml capacity centrifuge tubes in an ice bath. Each vial was rinsed with 2 ml ice-cold medium which was then added to the rest of the sample. Following centrifugation at 4° C. for 5 minutes at 3,400 rpm, the supernatant was discarded and the pelleted cells were resuspended in 4 ml of ice-cold 10% trichloroacetic acid. Samples were kept for 1 hour in an ice bath, centrifuged again, and the cells resuspended in 4 ml of ice-cold ethanol. After incubation for a further 2 hours in an ice-bath the cells were collected by filtration on glass fiber filters and washed twice with 10 ml of ice-cold ethanol. The filters with washed cells were transferred to scintillation vials, 10 ml of Hydrofluor™ scintillation fluid was added, and the samples were counted in a scintillation counter to determine the amount of bound radioactivity. The effect of paclitaxel at various concentrations on binding of the radioligand are presented in Table 8, with the amounts of radioligand bound in the presence of paclitaxel expressed as a percentage of the amount of radioligand bound in the DMSO control.
# plant tubulin = conditions: cited from earlier work
# brain tubulin = conditions: cited from earlier work
SMILES,Binding of radioligand (% control) ([1]; 0.1 μM),Binding of radioligand (% control) ([1]; 1 μM),Binding of radioligand (% control) ([1]; 10 μM),Binding of radioligand (% control) ([1]; 100 μM),Effect on binding of the radioligand (in words) [1],Binding (% control) (isolated bovine tubulin),also measured
"CCC(C)(NC(=O)c1cc(Cl)c(N)c(C=NOC)c1)C(=O)CCl (stereo not drawn) [Compound 2, 4-amino-3-chloro-5-methoxyiminomethyl-N-(3-chloro-1-ethyl-1-methyl-2-oxopropyl)benzamide]",–,–,–,–,–,–,Binding of the S enantiomer to tubulin compared with the R enantiomer (tubulin): bind more effectively to tubulin; melting point: 140 to 141 °C
"COC(=O)Nc1nc2ccc(C(=O)c3cccs3)cc2[nH]1 [Nocodazole, nocodazole]",102,99,74,44,reduced binding of the radioligand,31.3,–
"CC(=O)O[C@H]1C(=O)[C@@]2(C)[C@H]([C@H](OC(=O)c3ccccc3)[C@]3(O)C[C@H](OC(=O)[C@H](O)[C@@H](NC(=O)c4ccccc4)c4ccccc4)C(C)=C1C3(C)C)[C@]1(OC(C)=O)CO[C@@H]1C[C@@H]2O [Paclitaxel, paclitaxel]",37,19,6,4,reduced binding of the radioligand,–,"Binding of radioligand (% control) ([2]; antitubulin compound 25 μM, 2 hours preincubation, 20 minutes with tritiated compound 1): 50.3 % control; Effect on binding of the radioligand (in words) ([2]; tobacco cells, tritiated compound 1): reduced binding of the radioligand; Binding of radioligand (% control) ([3]; 0.004 μM): 84.5 % control; Binding of radioligand (% control) ([3]; 0.02 μM): 54.6 % control; Binding of radioligand (% control) ([3]; 0.1 μM): 34.6 % control; Binding of radioligand (% control) ([3]; 0.5 μM): 23.6 % control"
"COc1cc([C@@H]2c3cc4c(cc3[C@H](O)[C@H]3COC(=O)[C@H]23)OCO4)cc(OC)c1OC [Podophyllotoxin, podophyllotoxin]",37,0,0,0,reduced binding of the radioligand,21.7,–
"CC[C@]1(O)C[C@@H]2CN(CCc3c([nH]c4ccccc34)[C@@](C(=O)OC)(c3cc4c(cc3OC)N(C)[C@H]3[C@@](O)(C(=O)OC)[C@H](OC(C)=O)[C@]5(CC)C=CCN6CC[C@]43[C@@H]65)C2)C1 [Vinblastine, vinblastine]",155,218,286,323,increased binding of the radioligand,90.7,–
COP(=S)(NC(C)C)Oc1ccc(C)cc1[N+](=O)[O-] (stereo not drawn) [amiprophosmethyl],–,–,–,–,–,–,Inhibition of plant tubulin polymerization (plant tubulin): inhibit the polymerization of plant tubulin; Inhibition of brain tubulin polymerization (brain tubulin): not brain tubulin

# Source: patent publication US6500405B1, “Use of certain amides as probes for detection of antitubulin activity and resistance monitoring” (Dow AgroSciences LLC, priority 1996, dated 2002)
